Broadly, the IC50 is the midpoint of a concentration-inhibition curve. Read a low IC50 as higher potency.

Molecules are shown by their SMILES.

For one test, the system named is L1210. As to the kind of experiment: Antiproliferative activity against mouse L1210 cells. Type of test: functional, cell-based.
A further test has as its system FM3A. Description: Antiproliferative activity against mouse FM3A cells. Type of test: functional, cell-based.
In the next test the test system is MOLT-4. As to the kind of experiment: Antiproliferative activity against human Molt/4 cells. Format: functional, cell-based.
The test system of test [1] is CCRF-CEM. Description: Antiproliferative activity against human CEM cells. Type of test: functional, cell-based.
The next test relates to Daudi. Description: Antiproliferative activity against human Daudi cells. Format: functional, cell-based.
The test system of a further test is K562. Description: Antiproliferative activity against human K562 cells. Format: functional, cell-based.
The next test deals with Jurkat. Description: Antiproliferative activity against human Jurkat cells. Type of test: functional, cell-based.
Test [2] in a line: Inhibition of telomerase activity in human melanoma cell extracts.
The test system of a further test is WIL2-NS. As to the kind of experiment: Antiproliferative activity against human Wil2-NS cells. Format: functional, cell-based.
The subject of another test is CCRF-SB. Description: Antiproliferative activity against human CCRF-SB cells. Type of test: functional, cell-based.
A further test concerns Raji. Description: Antiproliferative activity against human Raji cells. Format: functional, cell-based.
Test [3] concerns CCRF-CEM. As to the kind of experiment: Antiproliferative activity against human CCRF-CEM cells. Type of test: functional, cell-based.

`CC(C)(C)OC(=O)N1CC2CC23C1=CC(=O)c1c3cnn1Cc1ccccc1` (centres undefined): the concentration for half-maximal inhibition (IC50) turned out to be 2.71 µM with L1210; 18.3 µM with FM3A; 8.55 µM with MOLT-4; 6.72 µM in the test with CCRF-CEM [1]; 7.52 µM with Daudi.
As to `COc1cc2c(cc1O)N=C[C@@H]1CCCN1C2=O`, the results for the IC50 in the test with K562 and in the test on Jurkat were 1 µM and 2200 nM, respectively.
Regarding `COC(=O)C1(O)C(OC)=CC(=O)N1CCCC(=O)Nc1cc(C(=O)Nc2cc(C(=O)Nc3cc(C(=O)NCCCN(C)C)n(C)c3)n(C)c2)n(C)c1` (centres undefined), the concentration for half-maximal inhibition (IC50) in the test on L1210 was > 200 µM.
Take `Cc1n[nH]c2c1C13CC1CN(C(=O)OC(C)(C)C)C3=CC2=O` (centres undefined): the half-maximal inhibitory concentration (IC50) in the test with L1210 is 0.52 µM; in the test on FM3A it was 1.4 µM; with MOLT-4, 1.74 µM; with CCRF-CEM [1] it was 1.26 µM; in the test with Daudi it was 0.68 µM.
For the compound `C=C1CC(C)(COc2cc(C(=O)Nc3cc(C(=O)Nc4cc(C(=O)Nc5cc(C(=O)NCCNC(=N)N)n(C)c5)n(C)c4)n(C)c3)n(C)n2)OC1=O` (centres undefined), the IC50 was found to be 9.6 µM in the test on L1210, 42.5 µM with FM3A, 12.3 µM in the test with MOLT-4 and 15.9 µM with CCRF-CEM [1].
With `C=C1CC(COc2cc(C(=O)Nc3cc(C(=O)Nc4cc(C(=O)Nc5cc(C(=O)NCCNC(=N)N)n(C)c5)n(C)c4)n(C)c3)n(C)n2)(c2ccccc2)OC1=O` (centres undefined), the IC50 in the test on L1210 came to 5.1 µM; in the test with FM3A, 20.5 µM; in the test on MOLT-4, 10.1 µM; in the test with CCRF-CEM [1] it was 10 µM.
As to `Cn1cc(NC(=O)c2cc(NC(=O)c3cc(NC(=O)c4cc(NC(=O)c5cc(NC=O)cn5C)cn4C)cn3C)cn2C)cc1C(=O)NCCC(=N)N`, the IC50 in test [2] worked out at 24 µM.
For `C=C1CC(C)(CCCCCCCOc2cc(C(=O)Nc3cc(C(=O)Nc4cc(C(=O)Nc5cc(C(=O)NCCC(=N)N)n(C)c5)n(C)c4)n(C)c3)n(C)n2)OC1=O` (centres undefined), the half-maximal inhibitory concentration (IC50) is 26.7 µM in the test on L1210, 63.3 µM with FM3A, 71.1 µM with MOLT-4 and 35.6 µM with CCRF-CEM [1].
`Cn1cc(NC(=O)c2cc(NC(=O)c3cc(NC(=O)CCCn4cc(F)c(=O)[nH]c4=O)cn3C)cn2C)cc1C(=O)NCCC(=N)N` gave a 50% inhibitory concentration (IC50) with K562 of 82 µM.
With `C=C1CC(C)(COc2cc(C(=O)Nc3cc(C(=O)Nc4cc(C(=O)NCCC(=N)N)n(C)c4)n(C)c3)n(C)n2)OC1=O` (centres undefined), the half-maximal inhibitory concentration (IC50) turned out to be 8.02 µM in the test on L1210, 27.6 µM in the test with FM3A, 6.8 µM with MOLT-4 and 9.6 µM in the test with CCRF-CEM [1].
The matching figures for `C=C1CC(C)(CCCOc2cc(C(=O)Nc3cc(C(=O)Nc4cc(C(=O)Nc5cc(C(=O)NCCC(=N)N)n(C)c5)n(C)c4)n(C)c3)n(C)n2)OC1=O` (centres undefined): 195 µM, 243 µM, 254 µM and 255 µM.
Take `C=C1CC(C)(COc2cc(C(=O)Nc3cc(C(=O)Nc4cc(C(=O)Nc5cc(C(=O)NCCC(=N)N)n(C)c5)n(C)c4)n(C)c3)n(C)n2)OC1=O` (centres undefined): the 50% inhibitory concentration (IC50) in the test on L1210 amounted to 14.7 µM; in the test on FM3A, 49 µM; with MOLT-4 it was 14.7 µM; in the test with CCRF-CEM [1] it was 15.9 µM.
As for `C=C1CC(COc2cc(C(=O)Nc3cc(C(=O)Nc4cc(C(=O)Nc5cc(C(=O)NCCC(=N)N)n(C)c5)n(C)c4)n(C)c3)n(C)n2)(c2ccc(Cl)cc2)OC1=O` (centres undefined), the 50% inhibitory concentration (IC50) worked out at 25.2 µM in the test with L1210, 64.7 µM in the test with FM3A, 79.1 µM in the test on MOLT-4 and 86.3 µM in the test with CCRF-CEM [1].
The matching figures for `C=C1CC(COc2cc(C(=O)Nc3cc(C(=O)Nc4cc(C(=O)Nc5cc(C(=O)NCCC(=N)N)n(C)c5)n(C)c4)n(C)c3)n(C)n2)(c2ccccc2)OC1=O` (centres undefined): 4.2 µM, 17.5 µM, 5.2 µM and 9.7 µM.
Take `Cn1cc(NC(=O)c2cc(NC(=O)c3cc(NC(=O)CCn4cc(F)c(=O)[nH]c4=O)cn3C)cn2C)cc1C(=O)NCCC(=N)N`: in the test on K562, the half-inhibitory concentration (IC50) came to 23 µM.
The same measure, in the same setting: to `Cn1cc(NC(=O)c2cc(NC(=O)c3cc(NC(=O)CCCCCCn4cc(F)c(=O)[nH]c4=O)cn3C)cn2C)cc1C(=O)NCCC(=N)N` belongs 50 µM; to `COc1cc2c(cc1OCCC(=O)Nc1cc(C(=O)NCCC(=N)N)n(C)c1)N=C[C@@H]1CCCN1C2=O`, > 100 µM.
As for `C=C1CC(C)(CCCCCOc2cc(C(=O)Nc3cc(C(=O)Nc4cc(C(=O)Nc5cc(C(=O)NCCC(=N)N)n(C)c5)n(C)c4)n(C)c3)n(C)n2)OC1=O` (centres undefined), the IC50 in the test with L1210 amounted to 109 µM; in the test on FM3A, 92 µM; with MOLT-4, 106 µM; in the test on CCRF-CEM [1], 74.3 µM.
The matching figures for `C=C1CC(C)(COc2cc(C(=O)Nc3cc(C(=O)NCCC(=N)N)n(C)c3)n(C)n2)OC1=O` (centres undefined): 24.3 µM, 32.4 µM, 22.3 µM and 26.3 µM.
For the compound `Cn1cc(NC(=O)c2cc(NC(=O)c3cc(NC(=O)Cn4cc(F)c(=O)[nH]c4=O)cn3C)cn2C)cc1C(=O)NCCC(=N)N`, the IC50 in the test on K562 is > 200 µM.
Regarding `C=C1CC(COc2cc(C(=O)Nc3cc(C(=O)Nc4cc(C(=O)NCCC(=N)N)n(C)c4)n(C)c3)n(C)n2)(c2ccccc2)OC1=O` (centres undefined), the IC50 in the test on L1210 is 4.1 µM; in the test on FM3A, 18.5 µM; with MOLT-4 it was 4.6 µM; with CCRF-CEM [1] it was 5.7 µM.
`C=C1CC(COc2cc(C(=O)Nc3cc(C(=O)Nc4cc(C(=O)Nc5cc(C(=O)NCCC(=N)N)n(C)c5)n(C)c4)n(C)c3)n(C)n2)(c2ccc(-c3ccccc3)cc2)OC1=O` (centres undefined): the 50% inhibitory concentration (IC50) came to 33.2 µM in the test with L1210, 21.8 µM with FM3A, 65.3 µM in the test on MOLT-4 and 95 µM with CCRF-CEM [1].
Turning to `C=C1CC(COc2cc(C(=O)Nc3cc(C(=O)NCCC(=N)N)n(C)c3)n(C)n2)(c2ccccc2)OC1=O` (centres undefined), the concentration for half-maximal inhibition (IC50) in the test on L1210 stood at 12.5 µM; in the test with FM3A it was 36.3 µM; in the test with MOLT-4, 15.8 µM; in the test with CCRF-CEM [1] it was 18.9 µM.
For `Cn1cc(NC(=O)c2cc(NC(=O)c3cc(NC(=O)[C@@H](N)CS)cn3C)cn2C)cc1C(=O)NCCC(=N)N`, the IC50 stood at 24.2 µM with K562; 35.8 µM in the test with MOLT-4; 98 µM with WIL2-NS; 92 µM with CCRF-SB; 45 µM in the test with Raji; 36.7 µM in the test on CCRF-CEM [3].
On to `Cn1cc(NC(=O)c2cc(NC(=O)c3cc(NC(=O)C(N)CN)cn3C)cn2C)cc1C(=O)NCCC(=N)N` (centres undefined), for which the half-maximal inhibitory concentration (IC50) with K562 worked out at 21.7 µM; in the test with MOLT-4, 38.8 µM; in the test with WIL2-NS, 108 µM; with CCRF-SB it was 97 µM; in the test with Raji it was 42.8 µM; in the test on CCRF-CEM [3], 40.6 µM.
In the test on K562, `Cn1cc(NC(=O)c2cc(NC(=O)c3cc(NC(=O)CCCCn4cc(F)c(=O)[nH]c4=O)cn3C)cn2C)cc1C(=O)NCCC(=N)N` displayed an IC50 of 153 µM.
Still for that read-out and setting: under `Cn1cc(NC(=O)c2cc(NC(=O)c3cc(NC(=O)CCCCCn4cc(F)c(=O)[nH]c4=O)cn3C)cn2C)cc1C(=O)NCCC(=N)N` stands 50 µM.
With `Cn1cc(NC(=O)c2cc(NC(=O)c3cc(NC=O)cn3C)cn2C)cc1C(=O)NCCC(=N)N` [STALLIMYCIN], the 50% inhibitory concentration (IC50) in the test with L1210 was 133 µM; in the test with FM3A it was 150 µM; in the test with MOLT-4, 64.6 µM; in the test on CCRF-CEM [1], 113 µM.
